From article PMC6089501 (Journal of Medicinal Chemistry, 2018)
In brackets after ≈: the same amount, converted by molar mass.

Columns and labels:
[1] = tested on: M. tuberculosis QcrB T313I mutant strain; assay type: cell-based, Mycobacterium tuberculosis
[2] = tested on: M. tuberculosis QcrB M342T mutant strain; assay type: cell-based, Mycobacterium tuberculosis

| SMILES | MIC T313I [1] [µM] | fold shift T313I [1] | MIC M342T [2] [µM] | fold shift M342T [2] |
| --- | --- | --- | --- | --- |
| NC(=O)c1sc(N2CCOCC2)cc1OCCc1ccccc1 [Compound 1, 5-Morpholino-3-phenethoxythiophene-2-carboxamide] | 53 (≈ 17.6 µg/mL) | 41 | 25 (≈ 8.31 µg/mL) | 19 |
| NC(=O)c1sc(N2CCOCC2)cc1OCCc1cccc(F)c1 [Compound 39, 3-[2-(3-Fluorophenyl)ethoxy]-5-morpholinothiophene-2-carboxamide] | 59 (≈ 20.7 µg/mL) | 110 | 7 (≈ 2.45 µg/mL) | 14 |
| CNC(=O)c1sc(N2CCOCC2)cc1OCCc1ccccc1 [Compound 21, N-Methyl-5-morpholino-3-(2-phenylethoxy)thiophene-2-carboxamide] | >20 | >250 | 4.8 (≈ 1.66 µg/mL) | 60 |
| NC(=O)c1sc(-c2ccncc2)cc1OCCc1ccccc1 [Compound 35, 3-(2-Phenylethoxy)-5-(4-pyridyl)thiophene-2-carboxamide] | >50 | >8.6 | >20 | >3 |
| NC(=O)c1sc(N2CCOCC2)cc1OCCc1ccc(OC(F)(F)F)cc1 [Compound 37, 5-Morpholino-3-[2-[4-(trifluoromethoxy)phenyl]ethoxy]thiophene-2-carboxamide] | 11 (≈ 4.58 µg/mL) | 46 |  |  |
